Results from patent publication US12077503B2, “Substituted cyclic amides and their use as herbicides” (FMC CORPORATION, priority 2015, dated 2024).

Legend:
Type in all cases: in vivo
[1] = tested on: barnyardgrass (Echinochloa crus-galli); assay: Test G Post-Emergence Protocol; details: Echinochloa crus-galli, post-emergence, 312 h, read-out: Barnyardgrass damage rating; for pest or weed control at 15.625 g/ha: 15.625 g ai/ha, evaluated after 13 days (100=total damage to plant; 0=no damage to plant); for pest or weed control at 62.5 g/ha: 62.5 g ai/ha; for pest or weed control at 62.5 g/ha / pest or weed control at 250 g/ha: evaluated after 13 days, 100=total damage to plant, 0=no damage to plant; for pest or weed control at 250 g/ha: 250 g ai/ha
In short: (§1)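 Pot-grown seedlings, 8 days old, raised in a glasshouse at 24/16 °C day/night with 14 h light and 65% humidity, were sprayed post-emergence with test compound in acetone/water (50:50) plus 0.5% Tween 20 at 15.625, 62.5 or 250 g/ha. Damage was scored visually 13 days later on a 0–100 scale (100 = total damage).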

[2] = tested on: velvetleaf (Abutilon theophrasti); assay: Test G Post-Emergence Protocol; details: Abutilon theophrasti, post-emergence, 312 h, read-out: Velvetleaf damage rating; for pest or weed control at 15.625 g/ha: 15.625 g ai/ha, evaluated after 13 days (100=total damage to plant; 0=no damage to plant); for pest or weed control at 62.5 g/ha: 62.5 g ai/ha; for pest or weed control at 62.5 g/ha / pest or weed control at 250 g/ha: evaluated after 13 days, 100=total damage to plant, 0=no damage to plant; for pest or weed control at 250 g/ha: 250 g ai/ha
In short: as §1

[3] = tested on: giant foxtail (Setaria faberi); assay: Test G Post-Emergence Protocol; details: Setaria faberi, post-emergence, 312 h, read-out: Foxtail, Giant damage rating; for pest or weed control at 15.625 g/ha: 15.625 g ai/ha, evaluated after 13 days (100=total damage to plant; 0=no damage to plant); for pest or weed control at 62.5 g/ha: 62.5 g ai/ha; for pest or weed control at 62.5 g/ha / pest or weed control at 250 g/ha: evaluated after 13 days, 100=total damage to plant, 0=no damage to plant; for pest or weed control at 250 g/ha: 250 g ai/ha
In short: as §1

[4] = tested on: redroot pigweed (Amaranthus retroflexus); assay: Test G Post-Emergence Protocol; details: Amaranthus retroflexus, post-emergence, 312 h, read-out: Pigweed, Redroot damage rating; for pest or weed control at 15.625 g/ha: 15.625 g ai/ha, evaluated after 13 days (100=total damage to plant; 0=no damage to plant); for pest or weed control at 62.5 g/ha: 62.5 g ai/ha; for pest or weed control at 62.5 g/ha / pest or weed control at 250 g/ha: evaluated after 13 days, 100=total damage to plant, 0=no damage to plant; for pest or weed control at 250 g/ha: 250 g ai/ha
In short: as §1

[5] = tested on: ivy-leaved morning glory (Ipomoea hederacea); assay: Test G Post-Emergence Protocol; details: Ipomoea, post-emergence, 312 h, read-out: Morningglory, Ivy-leaved damage rating; for pest or weed control at 15.625 g/ha: 15.625 g ai/ha, evaluated after 13 days (100=total damage to plant; 0=no damage to plant); for pest or weed control at 62.5 g/ha: 62.5 g ai/ha; for pest or weed control at 62.5 g/ha / pest or weed control at 250 g/ha: evaluated after 13 days, 100=total damage to plant, 0=no damage to plant; for pest or weed control at 250 g/ha: 250 g ai/ha
In short: as §1

corn (Zea mays) [6] = assay: Test G Post-Emergence Protocol; details: Zea mays, post-emergence, 312 h, read-out: Corn damage rating; for plant injury at 15.625 g/ha: 15.625 g ai/ha, evaluated after 13 days (100=total damage to plant; 0=no damage to plant); for plant injury at 62.5 g/ha: 62.5 g ai/ha; for plant injury at 62.5 g/ha / plant injury at 250 g/ha: evaluated after 13 days, 100=total damage to plant, 0=no damage to plant; for plant injury at 250 g/ha: 250 g ai/ha
In short: as §1

[7] = tested on: barnyardgrass (Echinochloa crus-galli); assay: Test G Pre-Emergence Protocol; details: Echinochloa crus-galli, pre-emergence, 312 h, evaluated after 13 days; for pest or weed control at 15.625 g/ha: 15.625 g ai/ha; for pest or weed control at 15.625 g/ha / pest or weed control at 250 g/ha: read-out: Barnyardgrass damage rating (100=total damage to plant; 0=no damage to plant); for pest or weed control at 62.5 g/ha: 62.5 g ai/ha, 100=total damage to plant, 0=no damage to plant, read-out: Barnyardgrass damage rating; for pest or weed control at 250 g/ha: 250 g ai/ha
In short: (§2)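 Spraying took place one day after sowing, at 15.625, 62.5 or 250 g/ha, using an acetone/water (50:50) spray solution containing 0.5% Tween 20. Plants were kept under glasshouse conditions (24/16 °C, 14 h light, 65% humidity, watered twice daily), and injury was rated 0–100 at day 13.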

[8] = tested on: velvetleaf (Abutilon theophrasti); assay: Test G Pre-Emergence Protocol; details: Abutilon theophrasti, pre-emergence, 312 h, evaluated after 13 days; for pest or weed control at 15.625 g/ha: 15.625 g ai/ha; for pest or weed control at 15.625 g/ha / pest or weed control at 250 g/ha: read-out: Velvetleaf damage rating (100=total damage to plant; 0=no damage to plant); for pest or weed control at 62.5 g/ha: 62.5 g ai/ha, 100=total damage to plant, 0=no damage to plant, read-out: Velvetleaf damage rating; for pest or weed control at 250 g/ha: 250 g ai/ha
In short: as §2

[9] = tested on: giant foxtail (Setaria faberi); assay: Test G Pre-Emergence Protocol; details: Setaria faberi, pre-emergence, 312 h, evaluated after 13 days; for pest or weed control at 15.625 g/ha: 15.625 g ai/ha; for pest or weed control at 15.625 g/ha / pest or weed control at 250 g/ha: read-out: Foxtail, Giant damage rating (100=total damage to plant; 0=no damage to plant); for pest or weed control at 62.5 g/ha: 62.5 g ai/ha, 100=total damage to plant, 0=no damage to plant, read-out: Foxtail, Giant damage rating; for pest or weed control at 250 g/ha: 250 g ai/ha
In short: as §2

[10] = tested on: redroot pigweed (Amaranthus retroflexus); assay: Test G Pre-Emergence Protocol; details: Amaranthus retroflexus, pre-emergence, 312 h, evaluated after 13 days; for pest or weed control at 15.625 g/ha: 15.625 g ai/ha; for pest or weed control at 15.625 g/ha / pest or weed control at 250 g/ha: read-out: Pigweed, Redroot damage rating (100=total damage to plant; 0=no damage to plant); for pest or weed control at 62.5 g/ha: 62.5 g ai/ha, 100=total damage to plant, 0=no damage to plant, read-out: Pigweed, Redroot damage rating; for pest or weed control at 250 g/ha: 250 g ai/ha
In short: as §2

[11] = tested on: ivy-leaved morning glory (Ipomoea hederacea); assay: Test G Pre-Emergence Protocol; details: Ipomoea, pre-emergence, 312 h, evaluated after 13 days; for pest or weed control at 15.625 g/ha: 15.625 g ai/ha; for pest or weed control at 15.625 g/ha / pest or weed control at 250 g/ha: read-out: Morningglory, Ivy-leaved damage rating (100=total damage to plant; 0=no damage to plant); for pest or weed control at 62.5 g/ha: 62.5 g ai/ha, 100=total damage to plant, 0=no damage to plant, read-out: Morningglory, Ivy-leaved damage rating; for pest or weed control at 250 g/ha: 250 g ai/ha
In short: as §2

corn (Zea mays) [12] = assay: Test G Pre-Emergence Protocol; details: Zea mays, pre-emergence, 312 h, evaluated after 13 days; for plant injury at 15.625 g/ha: 15.625 g ai/ha; for plant injury at 15.625 g/ha / plant injury at 250 g/ha: read-out: Corn damage rating (100=total damage to plant; 0=no damage to plant); for plant injury at 62.5 g/ha: 62.5 g ai/ha, 100=total damage to plant, 0=no damage to plant, read-out: Corn damage rating; for plant injury at 250 g/ha: 250 g ai/ha
In short: as §2

Compound | pest or weed control at 15.625 g/ha [1] [%] | pest or weed control at 62.5 g/ha [1] [%] | pest or weed control at 250 g/ha [1] [%] | pest or weed control at 15.625 g/ha [2] [%] | pest or weed control at 62.5 g/ha [2] [%] | pest or weed control at 250 g/ha [2] [%] | pest or weed control at 15.625 g/ha [3] [%] | pest or weed control at 62.5 g/ha [3] [%] | pest or weed control at 15.625 g/ha [4] [%] | pest or weed control at 62.5 g/ha [4] [%] | pest or weed control at 250 g/ha [4] [%] | pest or weed control at 15.625 g/ha [5] [%] | pest or weed control at 62.5 g/ha [5] [%] | pest or weed control at 250 g/ha [5] [%] | plant injury at 15.625 g/ha (corn (Zea mays) [6]) [%] | plant injury at 62.5 g/ha (corn (Zea mays) [6]) [%] | plant injury at 250 g/ha (corn (Zea mays) [6]) [%] | pest or weed control at 15.625 g/ha [7] [%] | pest or weed control at 62.5 g/ha [7] [%] | pest or weed control at 250 g/ha [7] [%] | further results
CN1C[C@H](c2cccc(C(F)(F)F)c2)[C@@H](C(=O)Nc2cnccc2S(C)(=O)=O)C1=O (racemic) [Compound 1747] | 0 | 60 | 80 | 0 | 0 | 10 | 10 | 60 | 10 | 20 | 20 | 0 | 20 | 50 | 0 | 0 | 30 | 0 | 0 | 80 | pest or weed control at 250 g/ha [3]: 80%; pest or weed control at 15.625 g/ha [8]: 0%; pest or weed control at 62.5 g/ha [8]: 0%; pest or weed control at 250 g/ha [8]: 0%; pest or weed control at 15.625 g/ha [9]: 0%; pest or weed control at 62.5 g/ha [9]: 10%; pest or weed control at 250 g/ha [9]: 70%; pest or weed control at 15.625 g/ha [10]: 0%; pest or weed control at 62.5 g/ha [10]: 10%; pest or weed control at 250 g/ha [10]: 10%; pest or weed control at 15.625 g/ha [11]: 0%; pest or weed control at 62.5 g/ha [11]: 0%; pest or weed control at 250 g/ha [11]: 0%; plant injury at 15.625 g/ha (corn (Zea mays) [12]): 0%; plant injury at 62.5 g/ha (corn (Zea mays) [12]): 0%; plant injury at 250 g/ha (corn (Zea mays) [12]): 0%
COc1ncc([C@@H]2CN(C)C(=O)[C@H]2C(=O)Nc2cccc(F)c2F)cc1Cl (racemic) [Compound 1755] | 60 | 70 | 80 | 10 | 30 | 60 | 70 | 80 | 10 | 20 | 30 | 60 | 70 | 70 | 10 | 80 | 80 | 70 | 80 | 90 | pest or weed control at 15.625 g/ha [8]: 0%; pest or weed control at 62.5 g/ha [8]: 20%; pest or weed control at 250 g/ha [8]: 70%; pest or weed control at 15.625 g/ha [9]: 80%; pest or weed control at 62.5 g/ha [9]: 90%; pest or weed control at 250 g/ha [9]: 90%; pest or weed control at 15.625 g/ha [10]: 0%; pest or weed control at 62.5 g/ha [10]: 40%; pest or weed control at 250 g/ha [10]: 70%; pest or weed control at 15.625 g/ha [11]: 0%; pest or weed control at 62.5 g/ha [11]: 20%; pest or weed control at 250 g/ha [11]: 80%; plant injury at 15.625 g/ha (corn (Zea mays) [12]): 20%; plant injury at 62.5 g/ha (corn (Zea mays) [12]): 60%; plant injury at 250 g/ha (corn (Zea mays) [12]): 80%
CN1C[C@H](c2ccc(C(F)(F)F)cc2)[C@@H](C(=O)Nc2cccc3ccsc23)C1=O (racemic) [Compound 1757] | 0 | 10 | 30 | 0 | 0 | 0 | 0 | 20 | 0 | 0 | 0 | 0 | 0 | 10 | 0 | 0 | 0 | 0 | 10 | 10 | pest or weed control at 250 g/ha [3]: 60%; pest or weed control at 15.625 g/ha [8]: 0%; pest or weed control at 62.5 g/ha [8]: 0%; pest or weed control at 250 g/ha [8]: 0%; pest or weed control at 15.625 g/ha [9]: 0%; pest or weed control at 62.5 g/ha [9]: 30%; pest or weed control at 250 g/ha [9]: 70%; pest or weed control at 15.625 g/ha [10]: 0%; pest or weed control at 62.5 g/ha [10]: 0%; pest or weed control at 250 g/ha [10]: 0%; pest or weed control at 15.625 g/ha [11]: 0%; pest or weed control at 62.5 g/ha [11]: 0%; pest or weed control at 250 g/ha [11]: 0%; plant injury at 15.625 g/ha (corn (Zea mays) [12]): 0%; plant injury at 62.5 g/ha (corn (Zea mays) [12]): 0%; plant injury at 250 g/ha (corn (Zea mays) [12]): 0%
